From patent US20240270740A1, “INHIBITORS OF CYCLIC GMP-AMP SYNTHASE AND USES THEREOF” (Ventus Therapeutics U.S., Inc., priority 2022, published 2024)

Columns and labels:
hcGAS [1] = target: T1, hcGAS (Homo sapiens, UniProt Q8N884); test: hcGAS LCMS assay (direct measurement of cGAMP production); format: biochemical; details: 0.5 nM hcGAS, 100 μM ATP, 100 μM GTP, 25 nM dsDNA, 4 h incubation
Procedure, shortened: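 Direct LC/MS readout of cGAMP formed: 4-h enzyme–substrate incubation with compound, stopped by acetonitrile/water quench carrying isotope-labelled cGAMP (0.15 mM) as standard. Potency reported as IC50 ranges.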

hcGAS [2] = target: T1, hcGAS; test: hcGAS Kinase-Glo assay (ATP depletion); format: biochemical; details: 40 nM hcGAS, 100 μM ATP, 100 μM GTP, 25 nM dsDNA, 3 h incubation
Experimental: cGAS catalyzes the cyclization of ATP and GTP to produce cGAMP, which is the activating ligand of STING. Human cGAS (hcGAS) inhibition can thus be quantified by measuring how much cGAMP is formed either indirectly, by monitoring ATP-depletion as in the hcGAS Kinase-Glo assay (as described below), or directly, such as using the hcGAS LCMS assay (as described below).
(i) hcGAS Kinase-Glo Assay
Compounds were tested for their human-cGAS […] inhibition activity using the methodology reported in Lama et al., “Development of human cGAS-specific small molecule inhibitors for repression of dsDNA-triggered interferon expression”, Nature Communications 10, Article number: 2261 (2019), with slight changes to some conditions as shown in Table B.
The results of the assay, expressed in IC50 values, are reported in Table D with the following designations: A represents an IC50 value<0.01 μM; B represents an IC50 value≥0.01 μM and <0.03 μM; C represents an IC50 value≥0.03 μM and <0.1 μM; D represents an IC50 value≥0.1.

T1 sequence (Q8N884 whole entry): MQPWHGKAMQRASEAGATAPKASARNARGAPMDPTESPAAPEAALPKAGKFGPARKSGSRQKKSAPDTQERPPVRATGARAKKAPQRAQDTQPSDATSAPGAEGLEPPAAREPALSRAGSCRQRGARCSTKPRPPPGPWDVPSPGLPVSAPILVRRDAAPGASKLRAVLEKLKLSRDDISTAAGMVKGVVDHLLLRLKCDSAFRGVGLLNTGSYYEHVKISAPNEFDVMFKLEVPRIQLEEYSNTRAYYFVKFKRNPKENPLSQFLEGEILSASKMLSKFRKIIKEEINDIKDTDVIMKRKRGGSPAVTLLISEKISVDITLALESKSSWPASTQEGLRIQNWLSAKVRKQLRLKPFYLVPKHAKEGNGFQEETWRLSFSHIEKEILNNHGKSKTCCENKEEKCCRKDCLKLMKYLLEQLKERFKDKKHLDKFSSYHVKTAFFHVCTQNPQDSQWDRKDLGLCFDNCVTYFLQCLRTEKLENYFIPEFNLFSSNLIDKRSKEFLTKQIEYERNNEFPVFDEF

| IC50 (hcGAS [1]) [nM] | IC50 (hcGAS [2]) [nM] | Compound |
| --- | --- | --- |
| 5 to 20 | 10 to 30 | 3-methoxy-4-(((1R,2S)-2-methoxycyclobutyl)amino)-N-(5-(5-methyl-1H-pyrazol-1-yl)-1,3,4-thiadiazol-2-yl)-2-oxo-2H-pyran-6-carboxamide [Rac-67] |
| 5 to 20 | 10 to 30 | COc1c(N[C@H]2CC[C@H](O)C2)cc(C(=O)Nc2nnc(-n3nccc3C)s2)oc1=O (racemic) [Rac-6, 4-(((1S,3S)-3-hydroxycyclopentyl)amino)-3-methoxy-N-(5-(5-methyl-1H-pyrazol-1-yl)-1,3,4-thiadiazol-2-yl)-2-oxo-2H-pyran-6-carboxamide] |
| < 5 | < 10 | COc1c(N[C@@H]2CCC[C@@H]2O)cc(C(=O)Nc2nnc(-c3sccc3Cl)s2)oc1=O (racemic) [Rac-7, N-(5-(3-chlorothiophen-2-yl)-1,3,4-thiadiazol-2-yl)-4-(((cis)-2-hydroxycyclopentyl)amino)-3-methoxy-2-oxo-2H-pyran-6-carboxamide] |
| 5 to 20 | 10 to 30 | COc1c(N[C@H]2CCC[C@H]2OC)cc(C(=O)Nc2nnc(-n3nccc3C)s2)oc1=O (racemic) [Rac-14, 3-methoxy-4-(((1S,2R)-2-methoxycyclopentyl)amino)-N-(5-(5-methyl-1H-pyrazol-1-yl)-1,3,4-thiadiazol-2-yl)-2-oxo-2H-pyran-6-carboxamide] |
| < 5 | 10 to 30 | COc1c(N[C@@H]2CCC[C@@H]2O)cc(C(=O)Nc2nnc(-n3nccc3C)s2)oc1=O (racemic) [Rac-23, 4-(((cis)-2-hydroxycyclopentyl)amino)-3-methoxy-N-(5-(5-methyl-1H-pyrazol-1-yl)-1,3,4-thiadiazol-2-yl)-2-oxo-2H-pyran-6-carboxamide] |
| 5 to 20 | 10 to 30 | COc1c(N[C@@H]2CC[C@H]2OC)cc(C(=O)Nc2nnc(-n3nccc3C)s2)oc1=O (racemic) [Rac-36, 3-methoxy-4-(((1R,2R)-2-methoxycyclobutyl)amino)-N-(5-(5-methyl-1H-pyrazol-1-yl)-1,3,4-thiadiazol-2-yl)-2-oxo-2H-pyran-6-carboxamide] |
| 5 to 20 | 10 to 30 | COc1c(N[C@@H]2CC[C@@H]2O)cc(C(=O)Nc2nnc(-n3nccc3C)s2)oc1=O (racemic) [Rac-43, 4-(((1R,2S)-2-hydroxycyclobutyl)amino)-3-methoxy-N-(5-(5-methyl-1H-pyrazol-1-yl)-1,3,4-thiadiazol-2-yl)-2-oxo-2H-pyran-6-carboxamide] |
| 5 to 20 | 10 to 30 | COc1c(N[C@H]2CC[C@@H](O)C2)cc(C(=O)Nc2nnc(-n3nccc3C)s2)oc1=O (racemic) [Rac-61, 4-(((1S,3R)-3-hydroxycyclopentyl)amino)-3-methoxy-N-(5-(5-methyl-1H-pyrazol-1-yl)-1,3,4-thiadiazol-2-yl)-2-oxo-2H-pyran-6-carboxamide] |
| 5 to 20 | 10 to 30 | COc1c(N2C[C@H](O)[C@H](OC)C2)cc(C(=O)Nc2nnc(-n3nccc3C)s2)oc1=O (racemic) [Rac-68, 4-((3S,4R)-3-hydroxy-4-methoxypyrrolidin-1-yl)-3-methoxy-N-(5-(5-methyl-1H-pyrazol-1-yl)-1,3,4-thiadiazol-2-yl)-2-oxo-2H-pyran-6-carboxamide] |
| 5 to 20 | < 10 | COc1c(N2C[C@H](OC)[C@@H](O)C2)cc(C(=O)Nc2nnc(-n3nccc3C)s2)oc1=O (racemic) [Rac-91, 4-((3S,4S)-3-hydroxy-4-methoxypyrrolidin-1-yl)-3-methoxy-N-(5-(5-methyl-1H-pyrazol-1-yl)-1,3,4-thiadiazol-2-yl)-2-oxo-2H-pyran-6-carboxamide] |
| 5 to 20 | 10 to 30 | COc1c(N2C[C@H](OC)[C@@H](OC)C2)cc(C(=O)Nc2nnc(-n3nccc3C)s2)oc1=O (racemic) [Rac-92, 4-((3S,4S)-3,4-dimethoxypyrrolidin-1-yl)-3-methoxy-N-(5-(5-methyl-1H-pyrazol-1-yl)-1,3,4-thiadiazol-2-yl)-2-oxo-2H-pyran-6-carboxamide] |
| 5 to 20 | < 10 | COc1c(N[C@H]2CCC[C@@H]2OC)cc(C(=O)Nc2nnc(-n3nccc3C)s2)oc1=O (racemic) [Rac-107, 3-methoxy-4-(((1S,2S)-2-methoxycyclopentyl)amino)-N-(5-(5-methyl-1H-pyrazol-1-yl)-1,3,4-thiadiazol-2-yl)-2-oxo-2H-pyran-6-carboxamide] |
| – | 10 to 30 | COc1c(NC23CC(C(F)F)(C2)C3)cc(C(=O)Nc2nnc(-n3nccc3C)s2)oc1=O [Compound 115, 4-((3-(difluoromethyl)bicyclo[1.1.1]pentan-1-yl)amino)-3-methoxy-N-(5-(5-methyl-1H-pyrazol-1-yl)-1,3,4-thiadiazol-2-yl)-2-oxo-2H-pyran-6-carboxamide] |
| – | 30 to 100 | COCCNc1cc(C(=O)Nc2nnc(-n3ncc(F)c3Cl)s2)oc(=O)c1OC [Compound 134, N-(5-(5-chloro-4-fluoro-1H-pyrazol-1-yl)-1,3,4-thiadiazol-2-yl)-5-methoxy-4-(2-methoxyethylamino)-6-oxo-6H-pyran-2-carboxamide] |
| – | ≥ 100 | COCCNc1cc(C(=O)Nc2nnc(-c3c(C)csc3C#N)s2)oc(=O)c1OC [Compound 137, N-(5-(2-cyano-4-methylthiophen-3-yl)-1,3,4-thiadiazol-2-yl)-3-methoxy-4-((2-methoxyethyl)amino)-2-oxo-2H-pyran-6-carboxamide] |
| – | 30 to 100 | COCCNc1cc(C(=O)Nc2nnc(-c3sncc3Cl)s2)oc(=O)c1OC [Compound 139, N-(5-(4-chloroisothiazol-5-yl)-1,3,4-thiadiazol-2-yl)-3-methoxy-4-((2-methoxyethyl)amino)-2-oxo-2H-pyran-6-carboxamide] |
| – | ≥ 100 | CCc1ccnn1-c1nnc(NC(=O)c2cc(NCCOC)c(OC)c(=O)o2)s1 [Compound 141, N-(5-(5-ethyl-1H-pyrazol-1-yl)-1,3,4-thiadiazol-2-yl)-3-methoxy-4-((2-methoxyethyl)amino)-2-oxo-2H-pyran-6-carboxamide] |
| – | 10 to 30 | COCCNc1cc(C(=O)Nc2nnc(-n3nccc3C(F)F)s2)oc(=O)c1OC [Compound 144, N-(5-(5-(difluoromethyl)-1H-pyrazol-1-yl)-1,3,4-thiadiazol-2-yl)-3-methoxy-4-((2-methoxyethyl)amino)-2-oxo-2H-pyran-6-carboxamide] |
| – | ≥ 100 | COc1c(NCCO)cc(C(=O)Nc2nnc(-c3sccc3Cl)s2)oc1=O [Compound 147, N-[5-(3-chlorothiophen-2-yl)-1,3,4-thiadiazol-2-yl]-4-[(2-hydroxyethyl)amino]-5-methoxy-6-oxopyran-2-carboxamide] |
| – | ≥ 100 | COCCNc1cc(C(=O)Nc2nnc(-n3nccc3Cl)s2)oc(=O)c1OC [Compound 148, N-[5-(5-chloropyrazol-1-yl)-1,3,4-thiadiazol-2-yl]-5-methoxy-4-[(2-methoxyethyl)amino]-6-oxopyran-2-carboxamide] |
| – | 30 to 100 | COc1c(NC2CC2)cc(C(=O)Nc2nnc(-n3nccc3C)s2)oc1=O [Compound 180, 4-(cyclopropylamino)-5-methoxy-N-[5-(5-methylpyrazol-1-yl)-1,3,4-thiadiazol-2-yl]-6-oxopyran-2-carboxamide] |
| – | ≥ 100 | COc1c(NCCN(C)C)cc(C(=O)Nc2nnc(-n3nccc3C)s2)oc1=O [Compound 181, 4-((2-(dimethylamino)ethyl)amino)-3-methoxy-N-(5-(5-methyl-1H-pyrazol-1-yl)-1,3,4-thiadiazol-2-yl)-2-oxo-2H-pyran-6-carboxamide] |
| – | 30 to 100 | COc1c(N2CCOCC2)cc(C(=O)Nc2nnc(-n3nccc3C)s2)oc1=O [Compound 186, 3-methoxy-N-(5-(5-methyl-1H-pyrazol-1-yl)-1,3,4-thiadiazol-2-yl)-4-morpholino-2-oxo-2H-pyran-6-carboxamide] |
| – | ≥ 100 | COc1c(NCCN)cc(C(=O)Nc2nnc(-n3nccc3C)s2)oc1=O [Compound 203, 4-((2-aminoethyl)amino)-3-methoxy-N-(5-(5-methyl-1H-pyrazol-1-yl)-1,3,4-thiadiazol-2-yl)-2-oxo-2H-pyran-6-carboxamide] |
| – | ≥ 100 | CNCCNc1cc(C(=O)Nc2nnc(-n3nccc3C)s2)oc(=O)c1OC [Compound 204, 3-methoxy-N-(5-(5-methyl-1H-pyrazol-1-yl)-1,3,4-thiadiazol-2-yl)-4-((2-(methylamino)ethyl)amino)-2-oxo-2H-pyran-6-carboxamide] |
| – | 10 to 30 | COc1c(N[C@H]2CC[C@H](O)CC2)cc(C(=O)Nc2nnc(-n3nccc3C)s2)oc1=O [Compound 217] |
| – | 10 to 30 | COc1c(NC23CC(CO)(C2)C3)cc(C(=O)Nc2nnc(-n3nccc3C)s2)oc1=O [Compound 218, 4-((3-(hydroxymethyl)bicyclo[1.1.1]pentan-1-yl)amino)-3-methoxy-N-(5-(5-methyl-1H-pyrazol-1-yl)-1,3,4-thiadiazol-2-yl)-2-oxo-2H-pyran-6-carboxamide] |
| – | 10 to 30 | COc1c(N[C@H]2CC[C@@H](OC)CC2)cc(C(=O)Nc2nnc(-n3nccc3C)s2)oc1=O [Compound 219, 3-methoxy-4-((1,4-cis-4-methoxycyclohexyl)amino)-N-(5-(5-methyl-1H-pyrazol-1-yl)-1,3,4-thiadiazol-2-yl)-2-oxo-2H-pyran-6-carboxamide] |
